Our source for the IC50 values is ChEMBL document CHEMBL1137604, “Structure-activity relationship study on the 6-membered heteroaromatic ring system of diphenylpyrazine-type prostacyclin receptor agonists” (Bioorg Med Chem Lett, 2007).

SMILES strings stand for the structures.

The test system of this assay is Plasma. The experiment in a line: Inhibition of ADP-induced platelet aggregation in human platelet rich plasma.
The term IC50 denotes the concentration needed to halve the response being measured. Lower therefore signals greater potency. `CN(CCCCOCC(=O)O)c1ccc(-c2ccccc2)c(-c2ccccc2)n1`: the IC50 worked out at 200 nM.
For `CN(CCCCOCC(=O)O)c1cc(-c2ccccc2)c(-c2ccccc2)nn1` the value was 8600 nM; for `CN(CCCCOCC(=O)O)c1ncc(-c2ccccc2)c(-c2ccccc2)n1`, 800 nM; for `CN(CCCCOCC(=O)O)c1cnc(-c2ccccc2)c(-c2ccccc2)c1`, 800 nM.
For the compound `CN(CCCCOCC(=O)O)c1cc(-c2ccccc2)c(-c2ccccc2)cn1`, the IC50 was found to be 1100 nM.
As for `CN(CCCCOCC(=O)O)c1nnc(-c2ccccc2)c(-c2ccccc2)n1`, the figure is 1300 nM.
